Earlier results as cited in patent US9861647B2 (Prelief Inc., priority 2007, dated 2018).
Read-outs that look alike come from different tables or passages of the source.

Test system: ragweed sensitized Beagle dogs
Conditions: Rudolph et al., 2003, cited from earlier work

Row | Compound | RW-induced nasal congestion (pseudoephedrine 3 mg/kg) | RW-induced nasal congestion (chlorpheniramine 10 mg/kg)
1 | CN[C@@H](C)[C@@H](O)c1ccccc1 [pseudoephedrine] | can prevent the development of RW-induced nasal congestion | 
2 | CN(C)CCC(c1ccc(Cl)cc1)c1ccccn1 (centres unmarked) [chlorpheniramine] |  | can prevent the development of RW-induced nasal congestion
